For two compounds, Activity results are on record in ChEMBL document CHEMBL1148069, “The punaglandins: 10-chloroprostanoids from the octocoral Telesto riisei” (J Nat Prod, 1994).

Molecules are shown by their SMILES. Calls of active or inactive are those of the source. No cut-off for these calls is given here.

In one assay the test system is L1210. Kind of assay: Cytotoxicity against mouse L1210 cells. The class given is functional, cell-based.
The next assay concerns Ehrlich. Kind of assay: Cytotoxicity against mouse EAC cells. It is filed as functional, cell-based.

As to `CCCCC/C=C\C[C@@]1(O)C=C(Cl)C(=O)/C1=C/[C@H](OC(C)=O)[C@H](CCCC(=O)OC)OC(C)=O`, the result with L1210 and in the assay on Ehrlich was Active.

For `CC/C=C\C/C=C\C[C@@]1(O)C=C(Cl)C(=O)/C1=C/[C@H](OC(C)=O)[C@H](CCCC(=O)OC)OC(C)=O`, the result in the assay on L1210 and with Ehrlich was Active.
